Molecular target: Aldo-keto reductase family 1 member B1 (Oryctolagus cuniculus) (UniProt P15122)
Test: Binding affinity towards rabbit aldose reductase

`CN(C)S(=O)(=O)c1ccc2oc3ccc(C(=O)O)cc3c(=O)c2c1` [7-Dimethylsulfamoyl-9-oxo-9H-xanthene-2-carboxylic acid] showed a Ki of 400 nM.

Reference: BindingDB's records for doi:10.1021/jm00185a027 (1981)
